In patent US20070117743A1, “New antitumoral compounds” (priority 2003, published 2007):

Assays:
Type in all cases: cell-based, human
Settings in all cases: 48 hours exposure
SK-MEL-28 = experiment: SRB colorimetric assay of cell growth and viability, SK-MEL-28
DU-145 = experiment: SRB colorimetric assay of cell growth and viability, DU-145
HeLa = experiment: SRB colorimetric assay of cell growth and viability, HeLa
SK-BR-3 = experiment: SRB colorimetric assay of cell growth and viability, SK-BR-3
LNCaP = experiment: SRB colorimetric assay of cell growth and viability, LNCaP
LoVo-Dox = experiment: SRB colorimetric assay of cell growth and viability, LoVo-Dox
Method in brief: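 Optical density at 490 nm of solubilized SRB, from triplicate wells, yields GI, TGI and LC values. Before staining, cells are fixed for 60 minutes at 4° C in cold TCA after a 48-hour exposure.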

HeLa-APL = experiment: SRB colorimetric assay of cell growth and viability, HeLa-APL
LoVo = experiment: SRB colorimetric assay of cell growth and viability, LoVo
IGROV-1 = experiment: SRB colorimetric assay of cell growth and viability, IGROV-1
A-549 = experiment: SRB colorimetric assay of cell growth and viability, A-549
HT-29 = experiment: SRB colorimetric assay of cell growth and viability, HT-29
IGROV-ET = experiment: SRB colorimetric assay of cell growth and viability, IGROV-ET
K-562 = experiment: SRB colorimetric assay of cell growth and viability, K-562
PANC-1 = experiment: SRB colorimetric assay of cell growth and viability, PANC-1

C/C=C1\NC(=O)[C@H](Cc2ccccc2)NC(=O)[C@@H](C(C)C)NC(=O)[C@@H]([C@@H](C)CC)NC(=O)[C@H](NC(=O)[C@H](NC(=O)[C@H](CCCN)NC(=O)[C@H]2CCCN2C(=O)[C@H](NC(=O)[C@@H](NC(=O)[C@@H](NC(=O)[C@H](NC(=O)CCCCCCC)C(C)C)[C@@H](C)O)C(C)C)C(C)C)[C@@H](C)CC)[C@@H](C)OC(=O)[C@H](C(C)C)NC1=O [Compound 18, [Oct^14]-KF]
GI50 (SK-MEL-28): 670 nM | TGI MEL-28 (SK-MEL-28): 1.14E−06 Molar | CC50 (SK-MEL-28; read-out: LC50 MEL-28): 1680 nM | GI50 (DU-145): 149 nM | LC50 (concentration causing 50% net cell kill) (DU-145): 1470 nM | TGI DU-145 (DU-145): 6.70E−07 Molar | GI50 (HeLa): 288 nM | TGI HELA (HeLa): 8.04E−07 Molar | CC50 (HeLa; read-out: LC50 HELA): 1680 nM | GI50 (SK-BR-3): 121 nM | LC50 (SK-BR-3): 536 nM | TGI SK-BR-3 (SK-BR-3): 3.02E−07 Molar | TGI LN-caP (LNCaP): 1.34E−06 Molar | GI50 (LNCaP; read-out: GI50 LN-caP): 402 nM | CC50 (LNCaP; read-out: LC50 LN-caP): 3.35 µM | GI50 (LoVo-Dox): 107 nM | TGI LOVO-DOX (LoVo-Dox): 1.68E−07 Molar | CC50 (LoVo-Dox; read-out: LC50 LOVO-DOX): 335 nM | GI50 (HeLa-APL): 536 nM | TGI HELA-APL (HeLa-APL): 1.07E−06 Molar | CC50 (HeLa-APL; read-out: LC50 HELA-APL): 3.35 µM | GI50 (LoVo): 188 nM | TGI LOVO (LoVo): 2.68E−07 Molar | CC50 (LoVo; read-out: LC50 LOVO): 402 nM | GI50 (IGROV-1): 168 nM | LC50 (concentration causing 50% net cell killing) (IGROV-1): 1070 nM | TGI IGROV (IGROV-1): 3.02E−07 Molar | TGI A-549 (A-549): 2.82E−07 Molar | GI50 (A-549; read-out: GI50 A-549): 134 nM | CC50 (A-549; read-out: LC50 A-549): 1210 nM | TGI HT-29 (HT-29): 3.22E−07 Molar | GI50 (HT-29; read-out: GI50 HT-29): 201 nM | CC50 (HT-29; read-out: LC50 HT-29): 536 nM | GI50 (IGROV-ET): 147 nM | TGI IGROV-ET (IGROV-ET): 3.02E−07 Molar | CC50 (IGROV-ET; read-out: LC50 IGROV-ET): 2010 nM | GI50 (K-562): 2410 nM | CC50 (K-562; read-out: LC50 K-562): 4.02 µM | GI50 (PANC-1): 2010 nM | TGI PANC-1 (PANC-1): 3.35E−06 Molar | CC50 (PANC-1; read-out: LC50 PANC-1): 6.03 µM
